This assay has as its target HDM2 protein (Homo sapiens, UniProt Q00987). The assay can be described thus: fluorescence polarization screening assay (FP IC50). Format: binding. Particulars: class symbols. Here is the method: The compounds were evaluated to determine activity at the HDM2 protein by known methods such as the fluorescence polarization screening assay that measures the inhibitory concentration that achieves 50% of maximal activity (FP IC50) and the dissociation constant for inhibitor binding (FP Ki). [Zhang et al., J. Analytical Biochemistry 331: 138-146 (2004)].

Chain of HDM2 protein (Q00987 whole entry): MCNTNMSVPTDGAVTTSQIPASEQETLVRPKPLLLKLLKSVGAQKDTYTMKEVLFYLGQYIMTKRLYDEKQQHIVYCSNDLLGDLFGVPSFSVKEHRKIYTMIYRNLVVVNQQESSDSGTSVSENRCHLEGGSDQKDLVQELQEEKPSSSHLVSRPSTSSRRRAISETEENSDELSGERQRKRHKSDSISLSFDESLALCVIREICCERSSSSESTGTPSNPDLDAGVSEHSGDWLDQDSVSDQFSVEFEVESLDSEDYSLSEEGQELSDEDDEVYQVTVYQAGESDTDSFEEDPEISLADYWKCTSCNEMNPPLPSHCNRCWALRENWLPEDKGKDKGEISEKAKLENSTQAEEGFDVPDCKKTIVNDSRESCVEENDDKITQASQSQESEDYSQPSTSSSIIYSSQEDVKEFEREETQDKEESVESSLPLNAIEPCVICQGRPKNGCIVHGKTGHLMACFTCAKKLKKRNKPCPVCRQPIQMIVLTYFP

By IC50 is commonly meant the concentration needed to halve the response being measured. With `CCC[C@H]1N(C(=O)c2ncccc2C(F)(F)F)CCC[C@@]1(Oc1csc(C(F)(F)F)c1)C(=O)N1CCc2cc(Cl)sc2C1C(=O)O` (stereo partly drawn) [Compound A19, 2-chloro-6-{[(2R,3S)-2-propyl-1-{[3-(trifluoromethyl)pyridin-2-yl]carbonyl}-3-{[5-(trifluoromethyl)thiophen-3-yl]oxy}piperidin-3-yl]carbonyl}-4,5,6,7-tetrahydrothieno[2,3-c]pyridine-7-carboxylic acid], the half-inhibitory concentration (IC50) lay within 1 to 100 nM.

For the molecule `COCC1c2ccc(Cl)cc2CCN1C(=O)[C@]1(Oc2csc(C(F)(F)F)c2)CCCN(C(=O)c2ncccc2C(F)(F)F)[C@@H]1CCN1CCC(CCO)CC1` (stereo partly drawn) [Compound A20, 2-(1-{2-[(2R,3S)-3-{[6-chloro-1-(methoxymethyl)-3,4-dihydroisoquinolin-2(1H)-yl]carbonyl}-1-{[3-(trifluoromethyl)pyridin-2-yl]carbonyl}-3-{[5-(trifluoromethyl)thiophen-3-yl]oxy}piperidin-2-yl]ethyl}piperidin-4-yl)ethanol], the half-inhibitory concentration (IC50) was in the range of 1 to 100 nM.

For the molecule `COCCN1CCN(CC[C@H]2N(C(=O)c3ncccc3C(F)(F)F)CCC[C@@]2(Oc2csc(C(F)(F)F)c2)C(=O)N2CCc3cc(Cl)ccc3C2COC)CC1` (stereo partly drawn) [Compound A21, 6-chloro-2-{[(2R,3S)-2-{2-[4-(2-methoxyethyl)piperazin-1-yl]ethyl}-1-{[3-(trifluoromethyl)pyridin-2-yl]carbonyl}-3-{[5-(trifluoromethyl)thiophen-3-yl]oxy}piperidin-3-yl]carbonyl}-1-(methoxymethyl)-1,2,3,4-tetrahydroisoquinoline], the IC50 fell in the range of 1 to 100 nM.

Molecule `COCC1c2ccc(Cl)cc2CCN1C(=O)[C@]1(Oc2csc(C(F)(F)F)c2)CCCN(C(=O)c2ncccc2C(F)(F)F)[C@@H]1CCNC1CCOCC1` (stereo partly drawn) [Compound A22, N-{2-[(2R,3S)-3-{[6-chloro-1-(methoxymethyl)-3,4-dihydroisoquinolin-2(1H)-yl]carbonyl}-1-{[3-(trifluoromethyl)pyridin-2-yl]carbonyl}-3-{[5-(trifluoromethyl)thiophen-3-yl]oxy}piperidin-2-yl]ethyl}tetrahydro-2H-pyran-4-amine] returned a half-maximal inhibitory concentration (IC50) of 1 to 100 nM.

In the case of `CCC[C@H]1N(C(=O)c2ncccc2C(F)(F)F)CCC[C@@]1(Oc1csc(C(F)(F)F)c1)C(=O)N1CCc2sc(Cl)cc2C1CCC(=O)O` (stereo partly drawn) [Compound A23, 3-(2-chloro-5-{[(2R,3S)-2-propyl-1-{[3-(trifluoromethyl)pyridin-2-yl]carbonyl}-3-{[5-(trifluoromethyl)thiophen-3-yl]oxy}piperidin-3-yl]carbonyl}-4,5,6,7-tetrahydrothieno[3,2-c]pyridin-4-yl)propanoic acid], the half-maximal inhibitory concentration (IC50) lay within 1 to 100 nM.

As for `CCC[C@H]1N(C(=O)c2ncccc2C(F)(F)F)CCC[C@@]1(Oc1csc(C(F)(F)F)c1)C(=O)N1CCc2sc(Cl)cc2C1CCC(N)=O` (stereo partly drawn) [Compound A24, 3-(2-chloro-5-{[(2R,3S)-2-propyl-1-{[3-(trifluoromethyl)pyridin-2-yl]carbonyl}-3-{[5-(trifluoromethyl)thiophen-3-yl]oxy}piperidin-3-yl]carbonyl}-4,5,6,7-tetrahydrothieno[3,2-c]pyridin-4-yl]propanamide], the IC50 is 101 to 20000 nM.

For `CCC[C@H]1N(C(=O)c2ncccc2C(F)(F)F)CCC[C@@]1(Oc1csc(C(F)(F)F)c1)C(=O)N1CCc2sc(Cl)cc2C1CC(C)(C)C(=O)O` (stereo partly drawn) [Compound A25, 3-(2-chloro-5-{[(2R,3S)-2-propyl-1-{[3-(trifluoromethyl)pyridin-2-yl]carbonyl}-3-{[5-(trifluoromethyl)thiophen-3-yl]oxy}piperidin-3-yl]carbonyl}-4,5,6,7-tetrahydrothieno[3,2-c]pyridin-4-yl)-2,2-dimethylpropanoic acid], the IC50 was 1 to 100 nM.

In turn, `CCC[C@H]1N(C(=O)c2ncccc2C(F)(F)F)CCC[C@@]1(Oc1csc(C(F)(F)F)c1)C(=O)N1CCc2sc(Cl)cc2C1CC(C)(C)C(=O)O` (stereo partly drawn) [Compound A26, 3-(2-chloro-5-{[(2R,3S)-2-propyl-1-{[3-(trifluoromethyl)pyridin-2-yl]carbonyl}-3-{[5-(trifluoromethyl)thiophen-3-yl]oxy}piperidin-3-yl]carbonyl}-4,5,6,7-tetrahydrothieno[3,2-c]pyridin-4-yl)-2,2-dimethylpropanoic acid] yielded a half-maximal inhibitory concentration (IC50) of 1 to 100 nM.

Molecule `CCC[C@H]1N(C(=O)c2ncccc2C(F)(F)F)CCC[C@@]1(Oc1csc(C(F)(F)F)c1)C(=O)N1CCc2sc(Cl)cc2C1CCC(=O)NC` (stereo partly drawn) [Compound A27, 3-(2-chloro-5-{[(2R,3S)-2-propyl-1-{[3-(trifluoromethyl)pyridin-2-yl]carbonyl}-3-{[5-(trifluoromethyl)thiophen-3-yl]oxy}piperidin-3-yl]carbonyl}-4,5,6,7-tetrahydrothieno[3,2-c]pyridin-4-yl)-N-methylpropanamide] displayed an IC50 of 101 to 20000 nM.

In turn, `CCC[C@H]1N(C(=O)c2ncccc2C(F)(F)F)CCC[C@@]1(Oc1csc(C(F)(F)F)c1)C(=O)N1CCc2ccsc2C1CC(C)(C)C(=O)OCC` (stereo partly drawn) [Compound A28, ethyl 2,2-dimethyl-3-(6-{[(2R,3S)-2-propyl-1-{[3-(trifluoromethyl)pyridin-2-yl]carbonyl}-3-{[5-(trifluoromethyl)thiophen-3-yl]oxy}piperidin-3-yl]carbonyl}-4,5,6,7-tetrahydrothieno[2,3-c]pyridin-7-yl)propanoate] came in with a half-maximal inhibitory concentration (IC50) of 101 to 20000 nM.

`CCC[C@H]1N(C(=O)c2ncccc2C(F)(F)F)CCC[C@@]1(Oc1csc(C(F)(F)F)c1)C(=O)N1CCc2ccsc2C1CC(C)(C)C(=O)O` (stereo partly drawn) [Compound A29, 2,2-dimethyl-3-(6-{[(2R,3S)-2-propyl-1-{[3-(trifluoromethyl)pyridin-2-yl]carbonyl}-3-{[5-(trifluoromethyl)thiophen-3-yl]oxy}piperidin-3-yl]carbonyl}-4,5,6,7-tetrahydrothieno[2,3-c]pyridin-7-yl)propanoic acid] came in with an IC50 of 1 to 100 nM.

Regarding `CCC[C@H]1N(C(=O)c2ncccc2C(F)(F)F)CCC[C@@]1(Oc1csc(C(F)(F)F)c1)C(=O)N1CCc2ccsc2C1CC(C)(C)C(=O)NCc1nnn[nH]1` (stereo partly drawn) [Compound A30, 2,2-dimethyl-3-(6-{[(2R,3S)-2-propyl-1-{[3-(trifluoromethyl)pyridin-2-yl]carbonyl}-3-{[5-(trifluoromethyl)thiophen-3-yl]oxy}piperidin-3-yl]carbonyl}-4,5,6,7-tetrahydrothieno[2,3-c]pyridin-7-yl)-N-(1H-tetrazol-5-ylmethyl)propanamide], the 50% inhibitory concentration (IC50) is 1 to 100 nM.

For `CCC[C@H]1N(C(=O)c2ncccc2C(F)(F)F)CCC[C@@]1(Oc1csc(C(F)(F)F)c1)C(=O)N1CCc2cc(Cl)sc2C1CC(C)(C)C(=O)O` (stereo partly drawn) [Compound A31, 3-(2-chloro-6-{[(2R,3S)-2-propyl-1-{[3-(trifluoromethyl)pyridin-2-yl]carbonyl}-3-{[5-(trifluoromethyl)thiophen-3-yl]oxy}piperidin-3-yl]carbonyl}-4,5,6,7-tetrahydrothieno[2,3-c]pyridin-7-yl)-2,2-dimethylpropanoic acid], the half-inhibitory concentration (IC50) was in the range of 1 to 100 nM.

`CCC[C@H]1N(C(=O)c2ncccc2C(F)(F)F)CCC[C@@]1(Oc1csc(C(F)(F)F)c1)C(=O)N1CCc2sc(Cl)cc2C1CCCN1CCOCC1` (stereo partly drawn) [Compound A32, 2-chloro-4-(3-morpholin-4-ylpropyl)-5-{[(2R,3S)-2-propyl-1-{[3-(trifluoromethyl)pyridin-2-yl]carbonyl}-3-{[5-(trifluoromethyl)thiophen-3-yl]oxy}piperidin-3-yl]carbonyl}-4,5,6,7-tetrahydrothieno[3,2-c]pyridine] gave an IC50 of 101 to 20000 nM.

`CCC[C@H]1N(C(=O)c2ncccc2C(F)(F)F)CCC[C@@]1(Oc1csc(C(F)(F)F)c1)C(=O)N1CCc2sc(Cl)cc2C1CCCN1CCCC1` (stereo partly drawn) [Compound A33, 2-chloro-5-{[(2R,3S)-2-propyl-1-{[3-(trifluoromethyl)pyridin-2-yl]carbonyl}-3-{[5-(trifluoromethyl)thiophen-3-yl]oxy}piperidin-3-yl]carbonyl}-4-(3-pyrrolidin-1-ylpropyl)-4,5,6,7-tetrahydrothieno[3,2-c]pyridine] returned a concentration for half-maximal inhibition (IC50) of 101 to 20000 nM.

For `CCC[C@H]1N(C(=O)c2ncccc2C(F)(F)F)CCC[C@@]1(Oc1csc(C(F)(F)F)c1)C(=O)N1CCc2sc(Cl)cc2C1C(=O)NC` (stereo partly drawn) [Compound A34, 2-chloro-N-methyl-5-{[(2R,3S)-2-propyl-1-{[3-(trifluoromethyl)pyridin-2-yl]carbonyl}-3-{[5-(trifluoromethyl)thiophen-3-yl]oxy}piperidin-3-yl]carbonyl}-4,5,6,7-tetrahydrothieno[3,2-c]pyridine-4-carboxamide], the IC50 was in the range of 101 to 20000 nM.

Molecule `CCC[C@H]1N(C(=O)c2ncccc2C(F)(F)F)CCC[C@@]1(Oc1csc(C(F)(F)F)c1)C(=O)N1CCc2sc(Cl)cc2C1CN1CCCC1` (stereo partly drawn) [Compound A35, 2-chloro-5-{[(2R,3S)-2-propyl-1-{[3-(trifluoromethyl)pyridin-2-yl]carbonyl}-3-{[5-(trifluoromethyl)thiophen-3-yl]oxy}piperidin-3-yl]carbonyl}-4-(pyrrolidin-1-ylmethyl)-4,5,6,7-tetrahydrothieno[3,2-c]pyridine] returned an IC50 of 101 to 20000 nM.

As to `CCC[C@H]1N(C(=O)c2ncccc2C(F)(F)F)CCC[C@@]1(Oc1csc(C(F)(F)F)c1)C(=O)N1CCc2sc(Cl)cc2C1CCC(=O)NS(C)(=O)=O` (stereo partly drawn) [Compound A36, 3-(2-chloro-5-{[(2R,3S)-2-propyl-1-{[3-(trifluoromethyl)pyridin-2-yl]carbonyl}-3-{[5-(trifluoromethyl)thiophen-3-yl]oxy}piperidin-3-yl]carbonyl}-4,5,6,7-tetrahydrothieno[3,2-c]pyridin-4-yl)-N-(methylsulfonyl) propanamide], the 50% inhibitory concentration (IC50) lay within 1 to 100 nM.

With `CCC[C@H]1N(C(=O)c2ncccc2C(F)(F)F)CCC[C@@]1(Oc1csc(C(F)(F)F)c1)C(=O)N1CCc2sc(Cl)cc2C1CCC(=O)NS(C)(=O)=O` (stereo partly drawn) [Compound A37, 3-(2-chloro-5-{[(2R,3S)-2-propyl-1-{[3-(trifluoromethyl)pyridin-2-yl]carbonyl}-3-{[5-(trifluoromethyl)thiophen-3-yl]oxy}piperidin-3-yl]carbonyl}-4,5,6,7-tetrahydrothieno[3,2-c]pyridin-4-yl)-N-(methylsulfonyl) propanamide], the IC50 lay in the range of 1 to 100 nM.

The values above are taken from patent US9062071B2, “Substituted piperidines as HDM2 inhibitors” (Merck Sharp & Dohme Corp, priority 2011, dated 2015).
